Results on 20 molecules are retold here after patent publication US20090291938A1 (TAKEDA PHARMACEUTICAL COMPANY LIMITED, priority 2007, published 2009).

The assay concerns HT29 human colorectal adenocarcinoma cell line. The assay is described as follows: cell proliferation assay (Cell Titer-Glo luminescent cell viability assay). Type of assay: cell-based. The settings on record: read-out: pIC50 (converted). As for the experimental part: The cell culture and proliferation assay may be carried out as follows: the HT29 human colorectal adenocarcinoma cell line (ATCC, USA) was maintained in Dulbecco's Modified Eagle's Medium (Invitrogen, USA) supplemented with 10% fetal bovine serum (JRH, USA). The cell proliferation assay was carried out with the Cell Titer-Glo luminescent cell viability assay (Promega, USA) according to the manufacture's instruction after the 72 hr treatment of the cells in the presence of the compounds. The cell viability was shown as a percentage of DMSO treated cells.

Where [1] appears, read: HT-29, cell proliferative assay, HT29 cells, 72 hr treatment, values given as ranges.

Read-outs that look alike come from different tables or passages of the source.

`COc1cc(C(=O)NC[C@@H]2CCCN2)ccc1Nc1ncc2c(n1)N(C1CCCC1)CCC(=O)N2C` [Compound 61, (S)-4-(9-cyclopentyl-5-methyl-6-oxo-6,7,8,9-tetrahydro-5H-pyrimido[4,5-b][1,4]diazepin-2-ylamino)-3-methoxy-N-(pyrrolidin-2-ylmethyl)benzamide]: the IC50 under setting [1] is more than 10 nM.
The same measure, in the same setting: as for `COc1cc(C(=O)N[C@H]2CCCNC2)ccc1Nc1ncc2c(n1)N(C1CCCCC1)CC(C)(C)C(=O)N2C` [Compound 111, (S)-4-(9-cyclohexyl-5,7,7-trimethyl-6-oxo-6,7,8,9-tetrahydro-5H-pyrimido[4,5-b][1,4]diazepin-2-ylamino)-3-methoxy-N-(piperidin-3-yl)benzamide], the figure is 1 to 2.51 nM.
Same read-out and setting: as for `COc1cc(C(=O)N[C@H]2CCCNC2)ccc1Nc1ncc2c(n1)N(C1CCCC1)CC1(CC1)C(=O)N2C` [Compound 166, (S)-4-(9′-cyclopentyl-5′-methyl-6′-oxo-5′,6′,8′,9′-tetrahydrospiro[cyclopropane-1,7′-pyrimido[4,5-b][1,4]diazepine]-2′-ylamino)-3-methoxy-N-(piperidin-3-yl)benzamide], the figure is 1 to 2.51 nM; as for `COc1cc(C(=O)NC2CCN(S(C)(=O)=O)CC2)ccc1Nc1ncc2c(n1)N(C1CCCC1)CCC(=O)N2C` [Compound 37, 4-(9-cyclopentyl-5-methyl-6-oxo-6,7,8,9-tetrahydro-5H-pyrimido[4,5-b][1,4]diazepin-2-ylamino)-3-methoxy N-(1-(methylsulfonyl)piperidin-4-yl)benzamide], 3.16 to 10 nM; as for `COc1cc(C(=O)N[C@H]2CCCNC2)ccc1Nc1ncc2c(n1)N(C1CCCC1)CC1(CCC1)C(=O)N2C` [Compound 182, (S)-4-(9′-cyclopentyl-5′-methyl-6′-oxo-5′,6′,8′,9′-tetrahydrospiro[cyclobutane-1,7′-pyrimido[4,5-b][1,4]diazepine]-2′-ylamino)-3-methoxy-N-(piperidin-3-yl)benzamide], 1 to 2.51 nM.
Still for that read-out and setting: as for `COc1cc(C(=O)N[C@H]2CCCNC2)ccc1Nc1ncc2c(n1)N(C1CCCC1)CC(C)(C)C(=O)N2C` [Compound 101, (S)-4-(9-cyclopentyl-5,7,7-trimethyl-6-oxo-6,7,8,9-tetrahydro-5H-pyrimido[4,5-b][1,4]diazepin-2-ylamino)-3-methoxy-N-(piperidin-3-yl)benzamide], the figure is 1 to 2.51 nM.
Consider `CC[C@@]1(C)CN(C2CCCC2)c2nc(Nc3ccc(C(=O)N[C@@H]4CCCNC4)cc3OC)ncc2N(C)C1=O` [Compound 134, 4-((S)-9-cyclopentyl-7-ethyl-5,7-dimethyl-6-oxo-6,7,8,9-tetrahydro-5H-pyrimido[4,5-b][1,4]diazepin-2-ylamino)-3-methoxy-N-((R)-piperidin-3-yl)benzamide], for which, under setting [1], the IC50 was 3.16 to 10 nM.
Still for that read-out and setting: as for `C=CCC1CN(C2CCCCC2)c2nc(Nc3ccc(C(=O)N[C@H]4CCCNC4)cc3OC)ncc2N(C)C1=O` (stereo partly drawn) [Compound 192, 4-(7-allyl-9-cyclohexyl-5-methyl-6-oxo-6,7,8,9-tetrahydro-5H-pyrimido[4,5-b][1,4]diazepin-2-ylamino)-3-methoxy-N-((S)-piperidin-3-yl)benzamide], the figure is more than 10 nM.
In the case of `CCC1(C)CN(C2CCCC2)c2nc(Nc3ccc(C(=O)NC4CCN(C)CC4)cc3OC)ncc2N(C)C1=O` (centres unmarked) [Compound 131, 4-(9-Cyclopentyl-7-ethyl-5,7-dimethyl-6-oxo-6,7,8,9-tetrahydro-5H-pyrimido[4,5-b][1,4]diazepin-2-ylamino)-3-methoxy-N-(1-methylpiperidin-4-yl)benzamide], where the note is “HT-29, 72 h”, the IC50 was 3.16 to 10 nM.
Take `COc1cc(C(=O)NC2CN(C)C2)ccc1Nc1ncc2c(n1)N(C1CCC1)CC(C)(C)C(=O)N2C` [Compound 154, 4-(9-cyclobutyl-5,7,7-trimethyl-6-oxo-6,7,8,9-tetrahydro-5H-pyrimido[4,5-b][1,4]diazepin-2-ylamino)-3-methoxy-N-(1-methylazetidin-3-yl)benzamide]: under setting [1], the IC50 was 3.16 to 10 nM.
Still for that read-out and setting: as for `C#CCC1CN(C2CCCC2)c2nc(Nc3ccc(C(=O)NC4CCNCC4)cc3OC)ncc2N(C)C1=O` (centres unmarked) [Compound 211, 4-(9-cyclopentyl-5-methyl-6-oxo-7-(prop-2-ynyl)-6,7,8,9-tetrahydro-5H-pyrimido[4,5-b][1,4]diazepin-2-ylamino)-3-methoxy-N-(piperidin-4-yl)benzamide], the figure is 1 to 2.51 nM; as for `CC[C@]1(C)CN(C2CCCCC2)c2nc(Nc3ccc(C(=O)N[C@H]4CCCNC4)cc3OC)ncc2N(C)C1=O` [Compound 151, 4-((R)-9-cyclohexyl-7-ethyl-5,7-dimethyl-6-oxo-6,7,8,9-tetrahydro-5H-pyrimido[4,5-b][1,4]diazepin-2-ylamino)-3-methoxy-N-((S)-piperidin-3-yl)benzamide], 3.16 to 10 nM.
Regarding `CN1CCC(NC(=O)c2ccc(Nc3ncc4c(n3)N(C3CCCC3)CC(C)(C)C(=O)N4C)c(O)c2)CC1` [Compound 121], the IC50 (HT-29, 72 h) is 3.16 to 10 nM.
With `COc1cc(C(=O)NCC2CCN(C)CC2)ccc1Nc1ncc2c(n1)N(C1CCCC1)CC(C)(C)C(=O)N2C` [Compound 88], under setting [1], the IC50 is more than 10 nM.
In the case of `COc1cc(C(=O)NC2CN(C)C2)ccc1Nc1ncc2c(n1)N(C1CCCC1)CCC(=O)N2C` [Compound 47, 4-(9-cyclopentyl-5-methyl-6-oxo-6,7,8,9-tetrahydro-5H-pyrimido[4,5-b][1,4]diazepin-2-ylamino)-3-methoxy-N-(1-methylazetidin-3-yl)benzamide], the IC50 under setting [1] is 3.16 to 10 nM.
For `COc1cc(C(=O)NC2CCN(C)CC2)ccc1Nc1ncc2c(n1)N(C1CCCC1)CC1(CCC1)C(=O)N2C` [Compound 179, 4-(9′-Cyclopentyl-5′-methyl-6′-oxo-5′,6′,8′,9′-tetrahydrospiro[cyclobutane-1,7′-pyrimido[4,5-b][1,4]diazepine]-2′-ylamino)-3-methoxy-N-(1-methylpiperidin-4-yl)benzamide], the IC50 (HT-29, 72 h) is less than 1 nM.
For the molecule `COc1cc(C(=O)NC2CCOCC2)ccc1Nc1ncc2c(n1)N(C1CCCC1)CC(C)(C)C(=O)N2C` [Compound 94, 4-(9-cyclopentyl-5,7,7-trimethyl-6-oxo-6,7,8,9-tetrahydro-5H-pyrimido[4,5-b][1,4]diazepin-2-ylamino)-3-methoxy-N-(tetrahydro-2H-pyran-4-yl)benzamide], the IC50 under setting [1] is 1 to 2.51 nM.
Same read-out and setting: as for `COc1cc(C(=O)N[C@@H]2CCCNC2)ccc1Nc1ncc2c(n1)N(C1CCCC1)CC(C)(C)C(=O)N2C` [Compound 100, (R)-4-(9-cyclopentyl-5,7,7-trimethyl-6-oxo-6,7,8,9-tetrahydro-5H-pyrimido[4,5-b][1,4]diazepin-2-ylamino)-3-methoxy-N-(piperidin-3-yl)benzamide], the figure is 3.16 to 10 nM; as for `COc1cc(C(=O)N[C@@H]2CCN(C)C2)ccc1Nc1ncc2c(n1)N(C1CCCC1)CCC(=O)N2C` [Compound 51, (R)-4-(9-cyclopentyl-5-methyl-6-oxo-6,7,8,9-tetrahydro-5H-pyrimido[4,5-b][1,4]diazepin-2-ylamino)-3-methoxy-N-(1-methylpyrrolidin-3-yl)benzamide], more than 10 nM.
`COc1cc(C(=O)N[C@H]2CCC(=O)NC2)ccc1Nc1ncc2c(n1)N(C1CCCC1)CCC(=O)N2C` [Compound 48, (S)-4-(9-cyclopentyl-5-methyl-6-oxo-6,7,8,9-tetrahydro-5H-pyrimido[4,5-b][1,4]diazepin-2-ylamino)-3-methoxy-N-(6-oxopiperidin-3-yl)benzamide]: under setting [1], the IC50 was more than 10 nM.
